Experimental data: patent publication US6589970B2, “6-(aryl-amido or aryl-amidomethyl)-naphthalen-2-yloxy-acidic derivatives as inhibitors of plasminogen activator inhibitor type-1 (PAI-1)” (Wyeth, priority 2001, dated 2003)
Where a name gives a salt, the structure may show the parent alone.

Experiments:
[1] = target: T1, recombinant human plasminogen activator inhibitor-1 (PAI-1) (Homo sapiens, UniProt P05121); assay: Primary Screen for the PAI-1 Inhibition; assay type: biochemical; conditions: for inhibition at 100 µM: 100 μM test compound, read-out: % Inhib. 100 μM; for inhibition at 25 µM: 25 μM test compound, read-out: % Inhib. 25 μM
T1 construct: purchased Molecular Innovations, Royal Oak, Mich
Protocol: Test compounds are dissolved in DMSO at a final concentration of 10 mM, then diluted 100× in physiologic buffer. The inhibitory assay is initiated by the addition of the test compound (1-100 μM final concentration, maximum DMSO concentration of 0.2%) in a pH 6.6 buffer containing 140 nM recombinant human plasminogen activator inhibitor-1 (PAI-1; Molecular Innovations, Royal Oak, Mich.). Following a 1 hour incubation at room temperature, 70 nM of recombinant human tissue plasminogen activator (tPA) is added, and the combination of the test compound, PAI-1 and tPA is incubated for an additional 30 minutes. Following the second incubation, Spectrozyme-tPA (American Diagnostica, Greenwich, Conn.), a chromogenic substrate for tPA, is added and absorbance read at 405 nm at 0 and 60 minutes. Relative PAI-1 inhibition is equal to the residual tPA activity in the presence of the test compound and PAI-1. Control treatments include the complete inhibition of tPA by PAI-1 at the molar ratio employed (2:1), and the absence of any effect of the test compound on tPA alone.

human PAI-1 = human PAI-1 (Homo sapiens, UniProt P05121); assay: Assay for Determining IC50 of Inhibition of PAI-1 (Antibody Assay); assay type: biochemical; conditions: active PAI-1 bound to tPA-coated plate
Protocol: This assay is based upon the non-SDS dissociable interaction between tPA and active PAI-1. Assay plates are initially coated with human tPA (10 μg/ml). The test compounds are dissolved in DMSO at 10 mM, then diluted with physiologic buffer (pH 7.5) to a final concentration of 1-50 μM. The test compounds are incubated with human PAI-1 (50 ng/ml) for 15 minutes at room temperature. The tPA-coated plate is washed with a solution of 0.05% Tween 20 and 0.1% BSA, then the plate is blocked with a solution of 3% BSA. An aliquot of the test compound/PAI-1 solution is then added to the tPA-coated plate, incubated at room temperature for 1 hour, and washed. Active PAI-1 bound to the plate is assessed by adding an aliquot of a 1:1000 dilution of the 33B8 monoclonal antibody against human PAI-1, and incubating the plate at room temperature for 1 hour (Molecular Innovations, Royal Oak, Mich. The plate is again washed, and a solution of goat anti-mouse IgG-alkaline phosphatase conjugate is added at a 1:50,000 dilution in goat serum. The plate is incubated 30 minutes at room temperature, washed, and a solution of alkaline phosphatase substrate is added. The plate is incubated 45 minutes at room temperature, and color development is determined at OD405nm. The quantitation of active PAI-1 bound to tPA at varying concentrations of the test compound is used to determine the IC50. Results are analyzed using a logarithmic best-fit equation. The assay sensitivity is 5 ng/ml of human PAI-1 as determined from a standard curve ranging from 0-100 ng/ml.

T1 sequence (P05121 24-402): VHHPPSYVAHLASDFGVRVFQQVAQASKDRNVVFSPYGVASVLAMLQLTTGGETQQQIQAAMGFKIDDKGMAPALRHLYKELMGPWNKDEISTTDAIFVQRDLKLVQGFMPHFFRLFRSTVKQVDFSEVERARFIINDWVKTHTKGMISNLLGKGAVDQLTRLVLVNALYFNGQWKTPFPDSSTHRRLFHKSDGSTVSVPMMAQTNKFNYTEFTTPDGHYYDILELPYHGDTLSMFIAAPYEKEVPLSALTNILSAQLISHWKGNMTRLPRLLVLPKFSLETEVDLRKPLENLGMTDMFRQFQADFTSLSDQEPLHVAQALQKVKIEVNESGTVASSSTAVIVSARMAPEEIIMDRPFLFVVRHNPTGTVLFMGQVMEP
Chain of human PAI-1 (P05121 24-402): as above

A melting point of 284 to 287 °C was found for `CCCCc1oc2ccccc2c1C(=O)Nc1ccc2c(Br)c(OCC(=O)O)ccc2c1` (as salt: sodium) [Example 6, {1-Bromo-6-[(2-butyl-benzofuran-3-carbonyl)-amino]-naphthalen-2-yloxy}-acetic acid sodium salt] in this work.

A melting point of 207 to 210 °C was found for `CCCCc1oc2ccccc2c1C(=O)NCc1ccc2cc(OCc3nnn[nH]3)ccc2c1` (as salt: sodium) [Example 8, 2-Butyl-benzofuran-3-carboxylic acid [6-(1H-tetrazol-5-ylmethoxy)-naphthalen-2-ylmethyl]-amide sodium salt] in this work.

A melting point of 260 °C was found for `CCCCc1oc2ccccc2c1C(=O)NCc1ccc2c(Br)c(OCC(=O)O)ccc2c1` (as salt: sodium) [Example 19, Sodium; (1-bromo-6-{[(2-butyl-benzofuran-3-carbonyl)-amino]-methyl}-naphthalen-2-yloxy)-acetate] in this work.

A melting point of 147 to 152 °C was found for `CCCCc1oc2ccccc2c1C(=O)NCc1ccc2c(-c3ccc(OC)cc3)c(OCc3nnn[nH]3)ccc2c1` (as salt: sodium) [Example 25, 2-Butyl-benzofuran-3-carboxylic [5-(4-methoxy phenyl)-6-(1H-tetrazol-5-ylmethoxy)-naphthalen-2-ylmethyl]-amide, sodium salt] in this work.

A melting point of 242 to 245 °C and an inhibition at 100 µM [1] of 47% were found for `CCCCc1oc2ccccc2c1C(=O)Nc1ccc2c(Br)c(OCc3nn[nH]n3)ccc2c1` [Example 5, 2-Butyl-benzofuran-3-carboxylic acid [5-bromo-6-(2H-tetrazol-5-ylmethoxy)-naphthalen-2-yl]-amide] in this work.

For `CCCCc1oc2ccccc2c1C(=O)NCc1ccc2cc(OCC(=O)[O-])ccc2c1.[Na+]` [Example 9, Sodium; (6-{[(2-butyl-benzofuran-3-carbonyl)-amino]-methyl}-naphthalen-2-yloxy)-acetate], the melting point was > 275 °C, the inhibition at 25 µM [1] was 28% and the inhibition at 100 µM [1] was 89%.

An inhibition at 25 µM [1] of 1%, an inhibition at 100 µM [1] of 70% and an IC50 (human PAI-1) of 51 µM were found for `O=C(O)COc1ccc2cc(CNC(=O)c3cnn(-c4ccc(Cl)cc4)c3C(F)(F)F)ccc2c1` [Example 14, [6-({[1-(4-Chloro-phenyl)-5-trifluoromethyl-1H-pyrazole-4-carbonyl]-amino}-methyl)-naphthalen-2-yloxy]-acetic acid] in this work.

A melting point of 219 to 220 °C, an inhibition at 25 µM [1] of 12% and an inhibition at 100 µM [1] of 70% were found for `CCCc1c(C(=O)NCc2ccc3c(Br)c(OCc4nnn[nH]4)ccc3c2)cnn1-c1ccccc1` [Example 22, 1-Phenyl-5-propyl-1H-pyrazole-4-carboxylic acid [5-bromo-6-(1H-tetrazol-5-ylmethoxy)-naphthalen-2-ylmethyl]-amide] in this work.

A melting point of 162 to 166 °C and an inhibition at 100 µM [1] of 48% were found for `CCCCc1oc2ccccc2c1C(=O)NCc1ccc2c(-c3ccc(C)cc3)c(OCc3nnn[nH]3)ccc2c1` [Example 23, 2-Butyl-benzofuran-3-carboxylic acid [6-(1H-tetrazol-5-ylmethoxy)-5-p-tolyl-naphthalen-2-ylmethyl]-amide] in this work.

A melting point of 75 to 78 °C and an inhibition at 100 µM [1] of 39% were found for `CCCCc1oc2ccccc2c1C(=O)NCc1ccc2c(-c3ccc(C(C)(C)C)cc3)c(OCc3nnn[nH]3)ccc2c1` [Example 27, 2-Butyl-benzofuran-3-carboxylic acid [5-(4-tert-butyl-phenyl)-6-(1H-tetrazol-5-ylmethoxy)-naphthalen-2-ylmethyl]-amide] in this work.

A melting point of 147 to 149 °C, an inhibition at 25 µM [1] of 4% and an inhibition at 100 µM [1] of 46% were found for `CCCCc1c(C(=O)N(C)Cc2ccc3c(Br)c(OCc4nnn[nH]4)ccc3c2)c2ccccc2n1C` [Example 36, 2-Butyl-1-methyl-1H-indole-3-carboxylic acid [5-bromo-6-(1H-tetrazol-5-ylmethoxy)-naphthalen-2-ylmethyl]-methyl-amide] in this work.

A melting point of 180 to 183 °C, an inhibition at 25 µM [1] of 24% and an inhibition at 100 µM [1] of 69% were found for `CCCCc1c(C(=O)N(C)Cc2ccc3c(Br)c(OCc4nnn[nH]4)ccc3c2)oc2ccccc12` [Example 39, 3-Butyl-benzofuran-2-carboxylic acid [5-bromo-6-(1H-tetrazol-5-ylmethoxy)-naphthalen-2-ylmethyl]-methyl-amide] in this work.

A melting point of 164 to 166 °C, an inhibition at 25 µM [1] of 49% and an inhibition at 100 µM [1] of 91% were found for `Cc1c(C(=O)N(C)Cc2ccc3c(Br)c(OCc4nnn[nH]4)ccc3c2)oc2ccccc12` [Example 41, 3-Methyl-benzofuran-2-carboxylic acid [5-bromo-6-(1H-tetrazol-5-ylmethoxy)-naphthalen-2-ylmethyl]-methyl-amide] in this work.

A melting point of 212 to 215 °C, an inhibition at 25 µM [1] of 47% and an inhibition at 100 µM [1] of 71% were found for `Cc1c(C(=O)NCc2ccc3c(Br)c(OCc4nnn[nH]4)ccc3c2)oc2ccccc12` [Example 43, 3-Methyl-benzofuran-2-carboxylic acid [5-bromo-6-(1H-tetrazol-5-ylmethoxy)-naphthalen-2-ylmethyl]-amide] in this work.

A melting point of 110 to 113 °C was found for `Cc1c(C(=O)NCc2ccc3c(Br)c(OC(Cc4ccccc4)C(=O)O)ccc3c2)oc2ccccc12` (centres unmarked) [Example 44, 2-(1-Bromo-6-{[(3-methyl-benzofuran-2-carbonyl)-amino]-methyl}-naphthalen-2-yloxy)-3-phenyl-propionic acid] in this work.

A melting point of 56 to 59 °C and an inhibition at 100 µM [1] of 17% were found for `CN(Cc1ccc2c(Br)c(OCc3nnn[nH]3)ccc2c1)C(=O)c1oc2ccccc2c1CCc1ccccc1` [Example 45, 3-Phenethyl-benzofuran-2-carboxylic acid [5-bromo-6-(1H-tetrazol-5-ylmethoxy)-naphthalen-2-ylmethyl]-methyl-amide] in this work.

A melting point of 87 to 90 °C, an inhibition at 25 µM [1] of 58% and an inhibition at 100 µM [1] of 88% were found for `CN(Cc1ccc2c(Br)c(OC(Cc3ccccc3)C(=O)O)ccc2c1)C(=O)c1oc2ccccc2c1CCc1ccccc1` (centres unmarked) [Example 46, 2-(1-Bromo-6-{[methyl-(3-phenethyl-benzofuran-2-carbonyl)-amino]-methyl}-naphthalen-2-yloxy)-3-phenyl-propionic acid] in this work.

A melting point of 119 to 122 °C, an inhibition at 25 µM [1] of 59% and an inhibition at 100 µM [1] of 90% were found for `CN(Cc1ccc2c(Br)c(OCC(=O)O)ccc2c1)C(=O)c1oc2ccccc2c1CCc1ccccc1` [Example 47, (1-Bromo-6-{[methyl-(3-phenethyl-benzofuran-2-carbonyl)-amino]-methyl}-naphthalen-2-yloxy)-acetic acid] in this work.

An inhibition at 25 µM [1] of 9% and an inhibition at 100 µM [1] of 68% were found for `O=C(O)COc1ccc2cc(CNC(=O)c3cc(-c4ccc(C(F)(F)F)cc4)oc3C(F)(F)F)ccc2c1` [Example 82, [6-({[2-Trifluoromethyl-5-(4-trifluoromethyl-phenyl)-furan-3-carbonyl]-amino}methyl)-naphthalen-2-yloxy]-acetic acid] in this work.

An inhibition at 100 µM [1] of 45% was found for `O=C(O)COc1ccc2cc(CNC(=O)c3ccccc3CCc3ccccc3)ccc2c1` [Example 83, {6-[(2-Phenethyl-benzoylamino)-methyl]-naphthalen-2-yloxy}-acetic acid] in this work.

An inhibition at 100 µM [1] of 34% was found for `O=C(O)COc1ccc2cc(CNC(=O)C3(c4ccc(Cl)cc4)CCCC3)ccc2c1` [Example 84, [6-({[1-(4-Chloro-phenyl)-cyclopentanecarbonyl]-amino}-methyl)-naphthalen-2-yloxy]-acetic acid] in this work.

An inhibition at 100 µM [1] of 34% was found for `O=C(O)COc1ccc2cc(CNC(=O)c3ccc(-c4cccc(C(F)(F)F)c4)o3)ccc2c1` [Example 85, [6-({[5-(3-Trifluoromethyl-phenyl)-furan-2-carbonyl]-amino}-methyl)-naphthalen-2-yloxy]-acetic acid] in this work.

An inhibition at 100 µM [1] of 33% was found for `CC(C)(C)c1cc(C(=O)NCc2ccc3cc(OCC(=O)O)ccc3c2)cc(C(C)(C)C)c1` [Example 86, {6-[(3,5-Di-tert-butyl-benzoylamino)methyl]-naphthalen-2-yloxy}-acetic acid] in this work.

An inhibition at 100 µM [1] of 32% was found for `O=C(O)COc1ccc2cc(CNC(=O)C3(c4ccccc4)CCCC3)ccc2c1` [Example 87, (6-{[(1-Phenyl-cyclopentanecarbonyl)-amino]-methyl}-naphthalen-2-yloxy)-acetic acid] in this work.
